From publication PMC2928817 (PLoS Pathogens, 2010)

How the values were obtained:
[1] = system: A/Vietnam/HN32060/2009 (VN32060r); parameters: species or system 2009 pandemic influenza A (H1N1) virus; conditions: in vivo
[2] = system: A/Vietnam/HCM9727/2009 (VN9727s); parameters: species or system 2009 pandemic influenza A (H1N1) virus; conditions: in vivo
A/Osaka/164/2009 (O164s) [3] = system: A/Osaka/164/2009 (O164s); parameters: species or system 2009 pandemic influenza A (H1N1) virus; conditions: in vivo
A/Osaka/180/2009 (O180r) [4] = system: A/Osaka/180/2009 (O180r); parameters: species or system 2009 pandemic influenza A (H1N1) virus; conditions: in vivo
[5] = system: A/Vietnam/HN32060/2009 (VN32060r); format: cell-based, 2009 pandemic influenza A (H1N1) virus
[6] = system: A/Vietnam/HCM9727/2009 (VN9727s); format: cell-based, 2009 pandemic influenza A (H1N1) virus
A/Osaka/164/2009 (O164s) [7] = format: cell-based, 2009 pandemic influenza A (H1N1) virus
A/Osaka/180/2009 (O180r) [8] = format: cell-based, 2009 pandemic influenza A (H1N1) virus

Structure (SMILES) | replication of VN32060r in the lungs of mice [1] | replication of VN9727s in the lungs of mice [2] | replication of O164s in the lungs of mice (A/Osaka/164/2009 (O164s) [3]) | replication of O180r in the lungs of mice (A/Osaka/180/2009 (O180r) [4]) | growth of VN32060r in the presence of NA inhibitor [5] | growth of VN9727s in the presence of NA inhibitor [6] | growth of O164s in the presence of NA inhibitor (A/Osaka/164/2009 (O164s) [7]) | growth of O180r in the presence of NA inhibitor (A/Osaka/180/2009 (O180r) [8]) | virus titers of VN9727s in the lungs of mice [2] | virus titers of O164s in the lungs of mice (A/Osaka/164/2009 (O164s) [3])
[H]/N=C(\N)N[C@H]1C=C(C(=O)O)O[C@@H]([C@H](OC)[C@H](O)COC(=O)CCCCCCC)[C@@H]1NC(C)=O [CS-8958] | significantly reduced | significantly reduced | significantly reduced | significantly reduced |  |  |  |  |  | 
CC(=O)N[C@H]1[C@H]([C@H](O)[C@H](O)CO)OC(C(=O)O)=C[C@@H]1N=C(N)N [Zanamivir] |  |  |  |  | inhibited the replication | inhibited the replication | inhibited the replication | inhibited the replication |  | 
CCC(CC)O[C@@H]1C=C(C(=O)O)C[C@H](N)[C@H]1NC(C)=O [Oseltamivir carboxylate] |  |  |  |  | replicated efficiently | severely impaired | severely impaired | replicated efficiently |  | 
NC(=O)c1nc(F)c[nH]c1=O [favipiravir, Favipiravir] | significantly reduced | significantly reduced | significantly reduced | significantly reduced |  |  |  |  |  | 
CCOC(=O)C1=C[C@@H](OC(CC)CC)[C@H](NC(C)=O)[C@@H](N)C1 [oseltamivir, oseltamivir phosphate] | not inhibited |  |  | not inhibited |  |  |  |  | significantly reduced | significantly reduced
